Laboratory results from a melting point compilation (Tetko et al.; mined from patent text by program, amines drawn as free bases though some values may be those of a salt).

Row | melting point [°C] | SMILES
1 | 214 to 215 | COc1cccc(-c2cc(S(=O)(=O)c3ccc(N)cc3)cc(N3CCCC3)n2)c1
2 | 242 to 243 | Cc1cc([N+](=O)[O-])ccc1-c1ccc(-c2ccc([N+](=O)[O-])cc2C)o1
3 | 243 to 246 | CN(C)c1ccc(N=Nc2nc3ccccc3s2)cc1
4 | 197 to 198 | CCOc1nn(Cc2ccc(OCc3cn4c(OCC)cccc4n3)cc2)cc1CCC(=O)O
5 | 180 | N#Cc1c(CNC(=O)c2ccc(OC(F)(F)F)cc2)nn(-c2ccc(Cl)cc2Cl)c1-c1ccc(Cl)cc1
6 | 187 to 190 | Cn1c(-c2ccc(Cl)cc2)cc(=O)c(C(=O)O)c1-c1ccc(Cl)cc1
7 | 91 to 93 | C=CCn1cc(C(O)(c2ccc3c(cnn3-c3ccc(F)cc3)c2)C(F)(F)F)c2ccn(C)c(=O)c21 (configuration not stated)
8 | 243 to 246 | COc1ccc(-c2nc(NC(C)=O)n3nc(-c4ccco4)nc3n2)cc1
9 | 235 to 240 | NC(=O)N1C(=O)C(C(=O)c2sccc2F)c2cc(Cl)ccc21 (configuration not stated)
10 | 202 to 206 | Cc1ccccc1C(=O)Nc1ccc(C(=O)N2CCCC(CO)c3ccccc32)cc1 (configuration not stated)
11 | 231 to 232 | O=C(O)c1ccccc1NC(=O)c1ncoc1-c1ccc(C(F)(F)F)cc1
12 | 137 | COC(C)(C)CNCc1cnc2c(C)c(NC(=O)c3ccc(OCC4CCOC4)cc3)ccc2c1 (configuration not stated)
13 | 193 to 197 | Cc1ncc2c(n1)-c1ccc(Cl)cc1C(c1ccccc1Cl)=NC2
14 | 71 to 73 | CCN(CC)C(=O)c1ccc2ccccc2c1-c1ccsc1
15 | 183 to 184 | COc1cccc(/C=C/C(=O)Nc2ccccc2C(=O)O)c1
16 | 200 to 202 | O=P1(c2ccccc2)c2ccccc2CN1c1ccc(Br)cc1 (configuration not stated)

Row | melting point [°C] | SMILES
17 | 213 to 217 | O=C1N(c2ccc(Cl)cc2Cl)Cc2cnc(Nc3ccccc3)nc2N1c1cccc(CCO)c1
18 | 110 to 112 | Cc1oc(-c2ccccc2)nc1COc1ccc(CON=C(CCC(N)=O)c2ccccc2)cc1
19 | 274 to 275 | S=C1Nc2ccc(Cl)cc2Nc2ccccc21
20 | 161 to 162 | CSc1ccc(-c2ccc(S(=O)(=O)CC(CO)N(O)C=O)cc2)cc1 (configuration not stated)
21 | 176 to 177 | NC(=O)c1ccc(Sc2ccc(Cl)cc2)c(Cl)c1
22 | 179 to 180 | COCc1cnc2c(NC(=O)c3c(Cl)cccc3Cl)ccc(C)c2c1-n1ccnc1
23 | 60 to 62 | COc1ccc(C#Cc2ccccc2)c(CC(C)=O)c1
24 | 160 to 162 | O=C(O)C(=O)CC(=O)c1cccn1Cc1ccc2ccccc2c1
25 | 226 | O=C(O)c1cccn2cc(-c3ccccc3)nc12
26 | 156 to 158 | C=C(C)c1cccc2c1nc(-c1c(F)cccc1F)n2Cc1c(F)cccc1F
27 | 95 to 96 | COC(=O)c1ccc2occ(-c3ccc(SC)cc3)c2c1
28 | 137 | CCCOc1ccc(S(=O)(=O)NC[C@@H](C(=O)NO)N2CCN(S(C)(=O)=O)CC2)cc1
29 | 147 to 152 | O=C(Nc1cccc(-n2nc(C(F)(F)F)cc2C(F)(F)F)c1)c1cc([N+](=O)[O-])ccc1Cl
30 | 302 to 303 | O=C1c2cc([N+](=O)[O-])ccc2-n2c1nc1ccccc1c2=O
31 | 191 to 193 | COc1ccc(-c2cnc3c(-c4ccsc4)cnn3c2)cc1
32 | 61 | O=S(=O)(Cl)c1ccc(Oc2ccc(Cl)cc2)cc1

Continued, molecule first:

Row | SMILES | melting point [°C]
33 | O=C1CCC(N2Cc3c(OCc4ccc(CNCCO)cc4)cccc3C2=O)C(=O)N1 (configuration not stated) | 251 to 253
34 | COc1cc(C2NC(C(=O)O)CS2)ccc1OCC(=O)NCCO[N+](=O)[O-] (configuration not stated) | 151 to 152
35 | CSC(=NS(=O)(=O)N1CCCCC1)N1CC(c2ccccc2)C(c2ccc(Cl)cc2)=N1 (configuration not stated) | 192 to 194
36 | CN(C)c1ccc2ncnc(Cl)c2c1 | 126 to 128
37 | Cc1ccc(N2CCN(c3c(C)c(O)c4c(c3C)CC(C)(C)O4)CC2)cc1 | 185 to 189
38 | Nc1nc2c(ncn2[C@@H]2CO[C@H](CO)C2)c(=O)[nH]1 | 261 to 263
39 | CCc1ncc2c3c(ccc2n1)OCC(CN1CC=C(c2c[nH]c4ccccc24)CC1)O3 (configuration not stated) | 203 to 211
40 | CN1CCN(c2c(Br)cc3c4c(cccc24)C(=O)N(O)C3=O)CC1 | 184 to 186
41 | OCC(CO)c1cccc2ccccc12 | 58 to 60
42 | CCC(=O)C1=CC=C(OC)C(Cl)(Cl)C1 | 51 to 54
43 | CC(N)=CC(=O)C1CNC(C)S1(=O)=O (configuration not stated) | 113 to 115
44 | CC(C)(C)OC(=O)N[C@@H](Cc1ccc(O)cc1)C(=O)NCC(=O)NCC(=O)O | 92 to 94
45 | CNC(=O)c1ccc(C=C2CC3CCC(C2)N3)cc1 | 164 to 166
46 | CC(=O)C1CCC2C3CCC4C=CCCC4(C)C3CCC12C (configuration not stated) | 135 to 136
47 | c1ccc2c(c1)OCC(CCc1ncc[nH]1)O2 (configuration not stated) | 159 to 160
48 | CCCC(=O)NC1=CC(=O)c2ccc(C=O)nc2C1=O | 208 to 210
49 | CC(C)(C)c1cc(C(=O)Nc2ccc(CC(=O)O)cc2)cc(C(C)(C)C)c1O | 253 to 254
50 | NC1COc2ccccc2NC1=O (configuration not stated) | 65 to 70
51 | COC(=O)c1ccc(NC(=O)CC(=O)C(C)C)cc1 | 54 to 56
52 | CC1(C)CC(=NO)c2cc(F)ccc2O1 | 108 to 110
53 | N#Cc1cc(F)cc(-c2cc(N)c3c(c2)C2(CCCCC2)C(=O)N3)c1 | 241 to 243
54 | CCOC(=O)C1=C(C)NN=C(C(=O)OC)C1c1cccnc1 (configuration not stated) | 179

Row | SMILES | melting point [°C]
55 | CN(C)CCNS(=O)(=O)c1cccc(NC(=O)c2cnn3c(C(F)(F)F)cc(-c4ccc(C(F)(F)F)cc4)nc23)c1 | 224
56 | Cn1c(-c2nnc3ccc(NC=O)nn23)cnc1[N+](=O)[O-] | 224 to 226
57 | CCOC(=O)/C=C/c1ccc(-c2ccc(O)c(C34CC5CC(CC(C5)C3)C4)c2)c(C)c1 | 193 to 195
58 | CCOC(=O)c1cn(C2CC2)c2nc(N3CCC(n4ccnn4)CC3)c(F)cc2c1=O | 213 to 214
59 | CN1CCN(C2=Nc3cc(F)ccc3Nc3ccsc32)CC1 | 206 to 208
60 | O=C(NCc1ccccc1)Nc1cc(CNc2ccccc2C(=O)Nc2cccc(C(F)(F)F)c2)ccn1 | 153
61 | O=C1CSC(=S)N1c1ccc(Cl)c(Cl)c1 | 176 to 178
62 | CCOC(=O)c1c(C(C)(C)O)nc(CO)n1Cc1ccc(-c2ccccc2-c2nnn[nH]2)cc1 | 98 to 99
63 | COC(OC)c1cccc(NCc2ccccc2)c1 | 55 to 56
64 | C[Si](C)(C)CCOCn1ccc(=O)[nH]c1=O | 120 to 122
65 | Cc1ncc(CN2CCc3cc(-c4cc(Cl)cc(Cl)c4)ccc3C2)c(N)n1 | 205 to 211
66 | CNC(=O)c1ccc(-c2ccc3oc(C4CCN(C(=O)OC(C)C)CC4)nc3c2)cn1 | 158 to 161
67 | O=C(O)CCCNc1ccccc1CNC(=O)C1Cc2ccccc2N1S(=O)(=O)c1ccc(-c2cccc(C(F)(F)F)c2)cc1 (configuration not stated) | 77 to 81
68 | COc1ccc(OCC(O)CNC(C)(C)C)c(-c2ccc(=S)[nH]n2)c1 (configuration not stated) | 188 to 190
69 | CN(C)c1ccc(-c2ccnc(Nc3ccc4c(c3)OCCO4)c2)cc1 | 154 to 156
70 | COc1cc(OC)c2c(c1)C(=O)c1cc(C)cc(OC)c1C2=O | 225
71 | CC(C)[C@H](NC(=O)N(C)Cc1cscn1)C(=O)N[C@@H](Cc1ccccc1)C[C@H](O)[C@H](Cc1ccccc1)NC(=O)OCc1cccnc1 | 69 to 73
72 | CCCCN(CCCC)c1ccc(C=Cc2ccc(C=CC3=C(C#N)C(=C(C#N)C#N)OC3(C)C(F)(F)F)cc2)c(OC)c1 (configuration not stated) | 175 to 177
73 | CCOC(=O)c1cn(-c2cccnc2)nc1Br | 94 to 95
74 | NS(=O)(=O)c1sc2ccccc2c1CCO | 162 to 164
75 | O=c1oc(-c2ccc(CCc3ccccc3)cc2)cc(O)c1SCCc1ccccc1 | 122 to 123
76 | CC(=O)N1CCN(C(=O)C2(C#N)Nc3cc(C)c(-c4ccccc4)c(N4CC[C@H](N(C)C)C4)c3O2)CC1 (some centres not stated) | 102 to 105

Row | SMILES | melting point [°C]
77 | O=C=NCCC12CCCn3c1c(c1ccccc13)CCO2 (configuration not stated) | 89 to 91
78 | COCC1(C)CCCOc2cc(C#Cc3ccc(C(=O)O)cc3)ccc21 (configuration not stated) | 112
79 | CCN(CCc1ccc(Nc2ncc3c(n2)-c2ccccc2C(c2cccc(Br)c2)C3)cc1)Cc1ccncc1 (configuration not stated) | 88 to 90
80 | CCC(C)c1ccccc1N (configuration not stated) | 89 to 91
81 | CCCCNC(=O)C1CC2(NC(=O)NC2=O)c2cc(F)ccc2O1 (configuration not stated) | 286 to 288
82 | CNc1nc(-c2ccc3c(c2)NC(=O)CO3)c(-c2ccccc2)s1 | 236 to 248
83 | NC(=O)c1c(Cl)c(Cl)c(Cl)c(Cl)c1C(=O)O | 113 to 114
84 | COc1cccc(N2Sc3ccccc3CC2=O)c1OCc1ccccc1 | 151 to 153
85 | COc1cc(C(C)=O)c(F)cc1Cl | 96.5 to 98.5
86 | Cc1cc(C)cc(C(=O)N(N(C(=O)c2ccc3c(c2C)OCCO3)C(=O)N(C)C)C(C)(C)C)c1 | 60 to 64
87 | COc1cc(C2C3=C(COC3=O)Nc3ccc4cc[nH]c4c32)cc(OC)c1OC (configuration not stated) | 299 to 301
88 | Cc1ccc(C(=O)OCCO)cc1-n1c(C)cc(OCc2ccc(F)cc2CNC(=O)Nc2cc(C(C)(C)C)nn2-c2cccc(OCCO)c2)c(Cl)c1=O | 180 to 181
89 | CC(=O)N1N=C(c2ccc([N+](=O)[O-])c(C)c2)c2cc3c(cc2C=C1C)OCO3 | 115 to 116
90 | CCOC(=O)C1CCC(n2nc(-c3c(-c4ccccc4)nn4ccccc34)ccc2=O)CC1 (configuration not stated) | 156 to 160
91 | CCCC(=O)c1cc(C(=O)C(=O)OC(=O)C(=O)c2cc(C(=O)CCC)c(C)cc2NCC)c(NCC)cc1C | 141 to 143
92 | CCOC(=O)c1nc[nH]c1-c1ccccc1 | 203 to 205
93 | CCOC(=O)c1nc(OC)cc(OC)n1 | 54 to 55
94 | COC(=O)CCC(=O)CCl | 8 to 13
95 | CON1CCC2(CC1)C(O)=C(c1c(C)cc(C)cc1C)C(=O)N2OC1CCCCC1 | 115 to 118
96 | CCOC(=O)c1cn(-c2c(OCc3ccccc3)cccc2OCc2ccccc2)cn1 | 125 to 126
97 | CCCCCCC(C)(C)c1cc(O)c2c(c1)OCCC1=C2CC(C)CC1 (configuration not stated) | 134 to 136
